Source: patent US11492359B2, “Near-infrared nerve-sparing fluorophores” (OREGON HEALTH & SCIENCE UNIVERSITY, priority 2018, dated 2022)

Assay: UV-Vis absorption and fluorescence spectroscopy of the Oxazine library
Format: physicochemical
Settings: for Extinction coefficient: Beer's Law plots; for Quantum yield: relative, references Oxazine 1, Oxazine 170, Rhodamine 101
Description: All reagents were purchased from Sigma Aldrich, Fisher Scientific, TCI, or Ark Pharm. Unless otherwise indicated, all commercially available starting materials were used directly without further purification. Analytical thin layer chromatography (TLC) was performed on Millipore ready-to-use plates with silica gel 60 (F254, 32-63 μm). Flash chromatography was performed on Sorbent Technologies silica gel for column chromatography or on a Biotage Isolera Flash System using SNAP Ultra cartridges. High-resolution mass spectra (HRMS) were measured on a ThermoElectron LTQ-Orbitrap high resolution mass spectrometer with a dedicated Accela HPLC system, or an Agilent 6244 time-of-flight LCMS with diode array detector VL+. LCMS and Purity Characterization Mass-to-charge ratio and purity of the Oxazine compounds were characterized on an Agilent 6244 time-of-flight tandem liquid chromatography mass spectroscopy (LCMS) with diode array detector VL+. Sample (10 μL) was injected into a C18 column (Poroshell 120, 4.6×50 mm, 2.7 micron), and eluted with a solvent system of A (H2O, 0.1% FA) and B (MeCN, 01.% FA) at 0.4 mL/min, from A/B=90/10 to 5/95 over 10 min, maintained at A/B=5/95 for additional 5 min. Ions were detected in positive ion mode by setting the capillary voltage at 4 kV and gas temperature at 350° C. Purity was calculated through area under the curve analysis of the absorbance at 254 nm. UV-Vis Absorption and Fluorescence Spectroscopy. UV-Vis spectra were collected with a Cary 50 UV-Vis spectrophotometer at room temperature, using a 1-cm quartz cuvette. Fluorescence spectra were collected on a Cary Eclipse fluorescence spectrophotometer (Agilent Technologies). All absorbance spectra were reference corrected. Extinction coefficient was calculated from Beer's Law plots of absorbance versus concentration. Fluorescence spectra were corrected for the wavelength dependent response of the R928 photomultiplier tube using a manufacturer generated correction file. Relative quantum yields are reported as the average of multiple measurements using multiple references, including Oxazine 1, Oxazine 170, and Rhodamine 101. Physicochemical Property Calculation. Physicochemical partition coefficients (Log D) values at pH 7.4, number of hydrogen bond donors and acceptors, polar surface area, and the number of rotatable bonds were calculated using Marvin and JChem calculator plugins (ChemAxon, Budapest, Hungary). Nerve-Specificity Screening using Direct/Topical Administration Each compound was screened for its tissue-specificity using a previously published direct/topical administration strategy in murine brachial plexus and sciatic nerves.^1 Each compound from the Oxazine library was formulated in the previously utilized co-solvent formulation (10% DMSO, 5% Kolliphor, 65% serum and 20% phosphate buffered saline) at 125 μM. 100 μL of the formulated Oxazine were incubated on the exposed brachial plexus or sciatic nerve for 5 minutes. The fluorophore containing solution was removed and the area was irrigated with saline 18 times to remove any unbound fluorophore. Co-registered fluorescence and color images were collected of each stained area 30 minutes after Oxazine direct/topical administration using a custom built macroscopic imaging system with 620/60 nm excitation and 700/75 nm bandpass emission filters. Custom written MatLab code was used to analyze the tissue specific fluorescence where regions of interest were selected on the nerve, muscle and adipose tissue using the white light images. These regions of interest were then analyzed on the co-registered matched fluorescence images permitting assessment of the nerve to muscle and nerve to adipose ratios in blinded manner. […]

Molecule | Max Abs | Max Em | Max Ex | Extinction coefficient | Quantum yield
CCCNc1cc2oc3c/c(=N/CC)c(C)cc-3nc2cc1C [LGW04-32, (Z)—N-(2,8-dimethyl-7-(propylamino)-3H-phenoxazin-3-ylidene)ethanaminium] | 620 nm | 638 nm | 620 nm | 61084 M⁻¹ cm⁻¹ | 39.77%
CC/N=c1/cc2oc3cc(N(C)C)ccc3nc-2cc1C [LGW04-36, (Z)—N-(7-(dimethylamino)-2-methyl-3H-phenoxazin-3-ylidene)ethanaminium] | 636 nm | 657 nm | 635 nm | 60819 M⁻¹ cm⁻¹ | 8.15%
CC/N=c1/cc2oc3cc(NCC)c(Cl)cc3nc-2cc1Cl [LGW05-39, (Z)—N-(2,8-dichloro-7-(ethylamino)-3H-phenoxazin-3-ylidene)ethanaminium] | 620 nm | 638 nm | 620 nm | 18223 M⁻¹ cm⁻¹ | 34.29%
CCN1CCOc2cc3c(cc21)Oc1cc2c(cc1=N3)OCC[N+]=2CC [LGW05-73, 4,8-diethyl-3,8,9,10-tetrahydro-2H-bis([1,4]oxazino)[2,3-b:3′,2′-i]phenoxazin-4-ium] | 657 nm | 676 nm | 660 nm | 55570 M⁻¹ cm⁻¹ | 32.95%
CC/N=c1/cc2oc3cc(NCC)c(F)cc3nc-2cc1C [LGW05-81, (Z)—N-(7-(ethylamino)-8-fluoro-2-methyl-3H-phenoxazin-3-ylidene)ethanaminium] | 611 nm | 632 nm | 610 nm | 58410 M⁻¹ cm⁻¹ | 43.02%
CCN1CCc2cc3c(cc21)Oc1cc2c(cc1=N3)CC[N+]=2CC [LGW07-59, 1,9-diethyl-2,3,7,8-tetrahydro-1H-dipyrrolo[3,2-b:2′,3′-i]phenoxazin-9-ium] | 649 nm | 665 nm | 655 nm | 51130 M⁻¹ cm⁻¹ | 32.17%
CCN(CC)c1ccc2nc3ccc(=[N+](CC)CC)cc-3oc2c1.[O-][Cl+3]([O-])([O-])[O-] [OX-1, reference compound] | 655 nm | 671 nm | 660 nm | 93211 M⁻¹ cm⁻¹ | 7.40%
(Z)—N-(7-(dimethylamino)-2-methyl-3H-phenoxazin-3-ylidene)ethanaminium [LGW04-84] | 637 nm | 658 nm | 640 nm | 50981 M⁻¹ cm⁻¹ | 3.95%

Now from value to molecule:

Max Abs | Max Em | Max Ex | Extinction coefficient | Quantum yield | Molecule
629 nm | 643 nm | 630 nm | 28067 M⁻¹ cm⁻¹ | 27.39% | c1c2c(cc3c1Oc1cc4c(cc1=N3)OCCN=4)OCCN2 [LGW03-65, 3,8,9,10-tetrahydro-2H-bis([1,4]oxazino)[2,3-b:3′,2′-i]phenoxazin-4-ium]
631 nm | 659 nm | 640 nm | 59737 M⁻¹ cm⁻¹ | 6.22% | CC[N+](CC)=c1ccc2nc3cc4c(cc3oc-2c1)NCC4 [LGW03-88, N-(2,3-dihydropyrrolo[3,2-b]phenoxazin-8(1H)-ylidene)-N-ethylethanaminium]
616 nm | 634 nm | 615 nm | 52291 M⁻¹ cm⁻¹ | 39.47% | CC/N=c1/cc2oc3cc(NC)c(C)cc3nc-2cc1C [LGW04-81, (Z)—N-(2,8-dimethyl-7-(methylamino)-3H-phenoxazin-3-ylidene)ethanaminium]
663 nm | 689 nm | 665 nm | 85597 M⁻¹ cm⁻¹ | 2.77% | c1cc2nc3ccc(=[N+]4CCCCC4)cc-3oc2cc1N1CCCCC1 [LGW04-91, 1-(7-(piperidin-1-yl)-3H-phenoxazin-3-ylidene)piperidin-1-ium]
638 nm | 660 nm | 640 nm | 36166 M⁻¹ cm⁻¹ | 3.84% | CCNc1cc2oc3cc(=[N+](CC)CC)ccc-3nc2cc1Cl [LGW05-33, N-(8-chloro-7-(ethylamino)-3H-phenoxazin-3-ylidene)-N-ethylethanaminium]
612 nm | 636 nm | 615 nm | 41527 M⁻¹ cm⁻¹ | 37.22% | CC/N=c1/cc2oc3cc(NCC)c(Cl)cc3nc-2cc1C [LGW05-42, (Z)—N-(8-chloro-7-(ethylamino)-2-methyl-3H-phenoxazin-3-ylidene)ethanaminium]
661 nm | 684 nm | 665 nm | 61535 M⁻¹ cm⁻¹ | 7.85% | CCN1CCOc2cc3nc4ccc(=[N+](CC)CC)cc-4oc3cc21 [LGW05-65, N-ethyl-N-(4-ethyl-3,4-dihydro-[1,4]oxazino[2,3-b]phenoxazin-8(2H)-ylidene)ethanaminium]
701 nm | 718 nm | 710 nm | 34002 M⁻¹ cm⁻¹ | 36.68% | CCN1c2cc3c(cc2C(C)=CC1(C)C)N=c1cc2c(cc1O3)=[N+](CC)C(C)(C)C=C2C [LGW05-66, 1,11-diethyl-2,2,4,8,10,10-hexamethyl-10,11-dihydro-2H-dipyrido[3,2-b:2′,3′-i]phenoxazin-1-ium]
628 nm | 650 nm | 630 nm | 45449 M⁻¹ cm⁻¹ | 32.68% | CC/N=c1/cc2oc3cc4c(cc3nc-2cc1C)CCN4CC [LGW05-76, (Z)—N-(1-ethyl-7-methyl-2,3-dihydropyrrolo[3,2-b]phenoxazin-8(1H)-ylidene)ethanaminium]
636 nm | 661 nm | 640 nm | 36833 M⁻¹ cm⁻¹ | 2.70% | CCNc1cc2oc3cc(=[N+](CC)CC)ccc-3nc2cc1F [LGW05-82, N-ethyl-N-(7-(ethylamino)-8-fluoro-3H-phenoxazin-3-ylidene)ethanaminium]
590 nm | 606 nm | 590 nm | 39303 M⁻¹ cm⁻¹ | 37.61% | Cc1cc2nc3cc(C)c(=N)cc-3oc2cc1N [LGW06-14, 7-amino-2,8-dimethyl-3H-phenoxazin-3-iminium]
664 nm | 684 nm | 670 nm | 38832 M⁻¹ cm⁻¹ | 11.68% | N-ethyl-N-(2,2,4,8-tetramethyl-1,2-dihydro-9H-pyrido[3,2-b]phenoxazin-9-ylidene)ethanaminium [LGW01-56]
